Reference: ChEMBL document CHEMBL1201862, “PubChem BioAssay data set” (2004)
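Method: 48-hour compound exposure of cells in 96-well plates, five concentrations, linear interpolation of endpoints. GI50 marks 50% less growth.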 Activity calls are given as the source filed them. Rule as the data show it: active = GI50 up to about 1.1 µM and inactive = higher.

What was measured:
Assay in all cases: NCI anticancer screen, dose series, 48 h
[1] = test system: MCF7
[2] = test system: HL-60
[3] = test system: CCRF-CEM
[4] = test system: COLO 205
[5] = test system: SK-OV-3
[6] = test system: RPMI-8226
[7] = test system: SK-MEL-2
[8] = test system: A498
[9] = test system: HT-29
[10] = test system: SNB-19
[11] = test system: SW-620
[12] = test system: 786-0
[13] = test system: IGROV-1
[14] = test system: NCI-H460
[15] = test system: UACC-257
[16] = test system: MDA-N
[17] = test system: PC-3
[18] = test system: NCI-H522
[19] = test system: TK-10
[20] = test system: HOP-62

| Compound | GI50 [1] | GI50 [2] | GI50 [3] | GI50 [4] | GI50 [5] | GI50 [6] | GI50 [7] | GI50 [8] | GI50 [9] | GI50 [10] | GI50 [11] | GI50 [12] | GI50 [13] | GI50 [14] | GI50 [15] | GI50 [16] | GI50 [17] | GI50 [18] | GI50 [19] | GI50 [20] |
| --- | --- | --- | --- | --- | --- | --- | --- | --- | --- | --- | --- | --- | --- | --- | --- | --- | --- | --- | --- | --- |
| CCN(CC(O)COc1ccc2c(c1)[n+]([O-])nc(N)[n+]2[O-])C(C)=O (stereo not given) | 91 µM (inactive) | > 100 µM (inactive) | 72.4 µM (inactive) | 3.7 µM (inactive) | > 100 µM (inactive) | > 100 µM (inactive) | > 100 µM (inactive) | 62.1 µM (inactive) | > 100 µM (inactive) | > 100 µM (inactive) | > 100 µM (inactive) | > 100 µM (inactive) | > 100 µM (inactive) | > 100 µM (inactive) | > 100 µM (inactive) | > 100 µM (inactive) | > 100 µM (inactive) | 31.1 µM (inactive) | > 100 µM (inactive) | > 100 µM (inactive) |
| Oc1ccc(Cl)cc1-c1nc(S)nc(-c2ccccc2)c1Cl | > 100 µM (inactive) | > 100 µM (inactive) | > 100 µM (inactive) | > 100 µM (inactive) | > 96.4 µM (inactive) | > 100 µM (inactive) | 69.8 µM (inactive) | 51.9 µM (inactive) | > 31.6 µM (inactive) | 69.2 µM (inactive) | > 100 µM (inactive) | 34.7 µM (inactive) | 72.4 µM (inactive) | > 100 µM (inactive) | > 100 µM (inactive) | > 100 µM (inactive) | > 100 µM (inactive) | > 31.6 µM (inactive) | 49.1 µM (inactive) | 31.1 µM (inactive) |
| CCN(CCCl)c1cc(CN(C)C)cc(NC(=O)c2ccc(C(=O)Nc3cccc(CN(C)C)c3)cc2)c1 | 0.11 µM (active) | 0.0467 µM (active) | 0.0708 µM (active) | 1.13 µM (inactive) | 1.91 µM (inactive) | 2.16 µM (inactive) | 0.467 µM (active) | 2.65 µM (inactive) | 1.35 µM (inactive) | 0.286 µM (active) | 0.225 µM (active) | 0.383 µM (active) | 0.274 µM (active) | 0.716 µM (active) | 1.83 µM (inactive) | 0.29 µM (active) | 0.305 µM (active) | 0.0161 µM (active) | 3.73 µM (inactive) | 0.326 µM (active) |
| COc1ccc(OC)c2sc(N3C(=O)/C(=C/Cc4ccco4)N=C3c3ccccc3)nc12 | 17.7 µM (inactive) | 18.1 µM (inactive) | 11.7 µM (inactive) | 50.5 µM (inactive) | 83.4 µM (inactive) | 15.5 µM (inactive) | 24.1 µM (inactive) | 66.2 µM (inactive) | 44 µM (inactive) | 47.3 µM (inactive) | 32.5 µM (inactive) | 35.5 µM (inactive) | 30.6 µM (inactive) | 50.1 µM (inactive) | > 100 µM (inactive) | 19.6 µM (inactive) | 24.5 µM (inactive) |  | > 100 µM (inactive) | 43 µM (inactive) |
| N/C(=N\Nc1ccc(S(N)(=O)=O)cc1)c1cnccn1 | > 100 µM (inactive) | > 100 µM (inactive) | > 100 µM (inactive) | > 100 µM (inactive) | > 100 µM (inactive) | > 100 µM (inactive) | > 100 µM (inactive) | > 100 µM (inactive) | > 100 µM (inactive) | > 100 µM (inactive) | > 100 µM (inactive) | > 100 µM (inactive) | > 100 µM (inactive) | > 100 µM (inactive) | > 100 µM (inactive) | > 100 µM (inactive) | > 100 µM (inactive) | > 100 µM (inactive) | > 100 µM (inactive) | > 100 µM (inactive) |
| O=[N+]([O-])c1ccc2c(c1)/C(=N/N=C1c3ccccc3Cc3ccccc31)c1cc([N+](=O)[O-])cc([N+](=O)[O-])c1-2 | 1.65 µM (inactive) | 2.26 µM (inactive) | 1.75 µM (inactive) | 3.21 µM (inactive) | 14.2 µM (inactive) | 4.39 µM (inactive) | 9.18 µM (inactive) | 5.75 µM (inactive) | 1.97 µM (inactive) | 7.33 µM (inactive) | 3.28 µM (inactive) | 1.72 µM (inactive) | 1.55 µM (inactive) | 3.14 µM (inactive) | 2.08 µM (inactive) | 3.36 µM (inactive) | 2.76 µM (inactive) | 1.63 µM (inactive) | 4.29 µM (inactive) | 3.01 µM (inactive) |
| C[C@]12CC[C@H]3[C@@H](CCC4=CC(=O)CC[C@@H]43)[C@@H]1CC[C@]2(O)C(N)=O | > 100 µM (inactive) | > 100 µM (inactive) | > 100 µM (inactive) | > 100 µM (inactive) | > 100 µM (inactive) | > 100 µM (inactive) | > 100 µM (inactive) | > 100 µM (inactive) | > 100 µM (inactive) | > 100 µM (inactive) | > 100 µM (inactive) | > 100 µM (inactive) | > 100 µM (inactive) | > 100 µM (inactive) | > 100 µM (inactive) | > 100 µM (inactive) | > 100 µM (inactive) | > 100 µM (inactive) | > 100 µM (inactive) | > 100 µM (inactive) |
| O=C1NC(Cc2c[nH]c3ccccc23)C(=O)N2C(c3ccccc3)c3[nH]c4ccccc4c3C[C@@H]12 (stereo not given in full) | 15.7 µM (inactive) | 20.5 µM (inactive) |  | 21.1 µM (inactive) | 31.3 µM (inactive) | 20 µM (inactive) | 23.8 µM (inactive) | 29.8 µM (inactive) | 22.1 µM (inactive) | 34.1 µM (inactive) | 31.9 µM (inactive) | 16.2 µM (inactive) | 22.2 µM (inactive) |  | 25.4 µM (inactive) | 17.6 µM (inactive) | 18.7 µM (inactive) | 18.1 µM (inactive) | 26.9 µM (inactive) | 17.2 µM (inactive) |
| CC(C)=C/C=C1/CS(=O)(=O)C=C1C | > 100 µM (inactive) | > 100 µM (inactive) | > 100 µM (inactive) | > 100 µM (inactive) | > 100 µM (inactive) | > 100 µM (inactive) | > 100 µM (inactive) | > 100 µM (inactive) | > 100 µM (inactive) | > 100 µM (inactive) | > 100 µM (inactive) | > 100 µM (inactive) | > 100 µM (inactive) |  | > 100 µM (inactive) | > 100 µM (inactive) | > 100 µM (inactive) | > 100 µM (inactive) | > 100 µM (inactive) | > 100 µM (inactive) |
| O=C1c2ccccc2-c2nnc3c(c21)Cc1ccccc1C3 | > 10 µM (inactive) | > 10 µM (inactive) | > 10 µM (inactive) | > 10 µM (inactive) | > 10 µM (inactive) | > 10 µM (inactive) | > 10 µM (inactive) | > 10 µM (inactive) | > 10 µM (inactive) | > 10 µM (inactive) | > 10 µM (inactive) | > 10 µM (inactive) | > 10 µM (inactive) | > 10 µM (inactive) |  | > 10 µM (inactive) | 9.53 µM (inactive) | > 10 µM (inactive) | > 10 µM (inactive) | > 10 µM (inactive) |
| Nc1ncnc2c1ncn2[C@@H]1C[C@H]1CO | > 100 µM (inactive) | > 100 µM (inactive) | > 100 µM (inactive) |  |  | > 100 µM (inactive) | > 100 µM (inactive) | > 100 µM (inactive) | > 100 µM (inactive) | > 100 µM (inactive) | > 100 µM (inactive) | > 100 µM (inactive) |  | > 100 µM (inactive) | > 100 µM (inactive) | > 100 µM (inactive) | > 100 µM (inactive) | > 100 µM (inactive) |  | > 100 µM (inactive) |
| CC1(C)CN=C(c2ccc3ccccc3c2O)N1 | > 100 µM (inactive) | > 100 µM (inactive) | > 100 µM (inactive) | > 100 µM (inactive) |  | > 100 µM (inactive) | > 100 µM (inactive) | > 100 µM (inactive) |  | > 100 µM (inactive) | > 100 µM (inactive) | > 100 µM (inactive) | > 100 µM (inactive) | > 100 µM (inactive) | > 100 µM (inactive) | > 100 µM (inactive) | > 100 µM (inactive) |  | > 100 µM (inactive) | > 100 µM (inactive) |
| COc1ccc(Cc2cc(Cc3ccc(OC)cc3)cc(Cc3ccc(OC)cc3)c2)cc1 | > 100 µM (inactive) | > 100 µM (inactive) |  |  | > 100 µM (inactive) | > 100 µM (inactive) | > 100 µM (inactive) | > 100 µM (inactive) | > 100 µM (inactive) | > 100 µM (inactive) | > 100 µM (inactive) | > 100 µM (inactive) | > 100 µM (inactive) | > 100 µM (inactive) | > 100 µM (inactive) | 6.58 µM (inactive) | > 100 µM (inactive) | > 100 µM (inactive) | > 100 µM (inactive) | > 100 µM (inactive) |
| [N-]=[N+]=Nc1ccc2c(c1)Sc1ccccc1N2CCCCN1CCN(Cc2ccc(C(=O)c3ccc(CSCC(N)C(=O)O)cc3)cc2)CC1 (stereo not given) | 16.4 µM (inactive) | 6.55 µM (inactive) | 14.3 µM (inactive) | 13.6 µM (inactive) | > 100 µM (inactive) | 13.2 µM (inactive) | 19.3 µM (inactive) | 18.5 µM (inactive) | 14 µM (inactive) |  | 1.87 µM (inactive) | 12.1 µM (inactive) | 13.5 µM (inactive) | 34.8 µM (inactive) | 22.8 µM (inactive) | 12.8 µM (inactive) | 43.5 µM (inactive) | 12.5 µM (inactive) | 56.2 µM (inactive) | 23.9 µM (inactive) |
